# From patent US9434724B2, “Quinuclidines for modulating alpha 7 activity” (priority 2014, dated 2016)
# pIC50, pKi: −log10 of the molar value.
# System: not listed separately
# Test: Metabolic stability assay in human liver microsomes (HLM)
# Format: in vitro ADME
# Settings: Protocol No. 1; human liver microsomes, 1 μM
# Experimental: (§1) Protocol 1: Studies were carried out in human and rat liver microsomes (“HLM” and “RLM,” respectively). Human and rat liver microsomes were purchased from BD Gentest. DMSO stocks were prepared for the test compounds. Aliquots of the DMSO solutions were diluted to 0.5 mM by acetonitrile, then further diluted by liver microsomes/buffer to 1.5 μM. 30 μL of 1.5 μM solutions were mixed with 15 μL of 6 mM NADPH, which had been pre-warmed to 37° C., at a final test compound concentration of 1 μM. The plates were kept in a 37° C. water bath for the duration of the experiment. At each time point (0, 5, 15, 30, 45 minutes), 135 μL of acetonitrile was added into corresponding wells. After the final time point was sampled, the plates were shaken at a vibrator (IKA, MTS 2/4) for 10 min (600 rpm/min) and then centrifuged at 5594 g for 15 min (Thermo Multifuge×3R). Aliquots of the supernatant were removed, diluted 1:1 into distilled water, and analyzed by LC-MS/MS. The peak area response ratio to internal standard (PARR) of the compounds at 5, 15, 30, 45 minutes was compared to the PARR at time 0 to determine the percent of test compound remaining at each time point. Half-lives were calculated using Excel software, fitting to a single-phase exponential decay equation.
# (§2) Protocol 2: Studies were carried out in human and rat liver microsomes. Buffer solutions were prepared as follows: Buffer A: 1.0 L of 0.1 M monobasic Potassium Phosphate buffer containing 1.0 mM EDTA; Buffer B: 1.0 L of 0.1 M Dibasic Potassium Phosphate buffer containing 1.0 mM EDTA; Buffer C: 0.1 M Potassium Phosphate buffer, 1.0 mM EDTA, pH 7.4 by titrating 700 mL of buffer B with buffer A while monitoring with a pH meter.
# (§3) Reference compound (Ketanserin) and test compound spiking solutions were prepared as follows: 500 μM spiking solution: add 10 μL of 10 mM DMSO stock solution into 190 μL ACN; 1.5 μM spiking solution in microsomes (0.75 mg/mL): add 1.5 μL of 500 μM spiking solution and 18.75 μL of 20 mg/mL liver microsomes into 479.75 μL of Buffer C.
# (§4) NADPH stock solution (6 mM) was prepared by dissolving NADPH into buffer C.
# (§5) Assay procedure: 30 μL of 1.5 μM spiking solution containing 0.75 mg/mL microsomes solution was dispensed to the wells designated for […]. The plate was pre-incubated at 37° C. for 10 minutes. 15 μL of NADPH stock solution (6 mM) was added to the wells designated as Time 45, and the timer was started. At 30 mM, 15 mM, and 5 mM, 15 μL NADPH stock solution (6 mM) was added to the wells, respectively. At the end of incubation (0 mM), 135 μL of ACN containing IS was added to all the wells. Then 15 μL of NADPH stock solution (6 mM) was added to the wells designated as Time 0. After quenching, the reaction mixtures were centrifuged at 3220 g for […]. Following centrifugation, 50 μL of the supernatant was transferred from each well into a 96-well sample plate containing 50 μL of ultra-pure water (Millipore) for LC/MS analysis. The peak area response (PARR) ratio to internal standard of the compounds at 5, 15, 30, and 45 minutes was compared to the PARR at time 0 to determine the percent of test compound remaining at each time point. Half-lives were calculated using Excel software, fitting to a single-phase exponential decay equation.
row,SMILES,HLM [mL/min/kg]
1,"Cl.O=C(OCC12CCN(CC1)CC2)c1c[nH]c2cc(Cl)c(F)cc12 [Compound 52, Quinuclidin-4-ylmethyl 6-chloro-5-fluoro-1H-indole-3-carboxylate hydrochloride]",4.003

# Same assay, conditions: human, microsomes, 1 μM, pH 7.4
row,SMILES,HLM [mL/min/kg]
1,"O=C(OCC12CCN(CC1)CC2)c1c[nH]c2ccccc12 [Compound 1, quinuclidin-4-ylmethyl 1H-indole-3-carboxylate]",<13.608
2,"COc1ccc2c(C(=O)OCC34CCN(CC3)CC4)c[nH]c2c1 [Compound 10, quinuclidin-4-ylmethyl 6-methoxy-1H-indole-3-carboxylate]",<13.608
3,"O=C(OCC12CCN(CC1)CC2)c1c[nH]c2cc(F)ccc12 [Compound 11, quinuclidin-4-ylmethyl 6-fluoro-1H-indole-3-carboxylate]",<13.608
4,"O=C(OCC12CCN(CC1)CC2)c1c[nH]c2ccc(F)cc12 [Compound 12, quinuclidin-4-ylmethyl 5-fluoro-1H-indole-3-carboxylate]",<13.608
5,"O=C(OCC12CCN(CC1)CC2)c1c[nH]c2ccc(O)cc12 [Compound 15, quinuclidin-4-ylmethyl 5-hydroxy-1H-indole-3-carboxylate]",<13.608

# Biological target: CYP2C9 (Homo sapiens (Human), UniProt P11712)
# Sequence (P11712 whole entry): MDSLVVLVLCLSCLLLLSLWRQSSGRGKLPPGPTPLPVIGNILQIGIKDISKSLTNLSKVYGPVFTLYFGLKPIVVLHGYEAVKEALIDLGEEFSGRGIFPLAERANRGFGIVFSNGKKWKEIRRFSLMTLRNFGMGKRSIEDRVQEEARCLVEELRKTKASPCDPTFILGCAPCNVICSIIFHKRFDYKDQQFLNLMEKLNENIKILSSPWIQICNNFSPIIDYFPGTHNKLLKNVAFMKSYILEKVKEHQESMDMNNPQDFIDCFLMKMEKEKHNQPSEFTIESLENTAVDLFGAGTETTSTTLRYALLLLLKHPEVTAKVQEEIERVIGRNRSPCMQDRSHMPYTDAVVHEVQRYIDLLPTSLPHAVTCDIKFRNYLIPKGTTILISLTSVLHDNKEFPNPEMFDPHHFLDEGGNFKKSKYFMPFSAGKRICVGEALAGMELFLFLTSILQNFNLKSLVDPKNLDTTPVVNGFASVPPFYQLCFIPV
# Test: Cytochrome P450 inhibition in human liver microsomes, CYP2C9
# Settings: read-out: 2C9 IC50, Protocol 1
row,SMILES,pIC50
1,"Cl.O=C(OCC12CCN(CC1)CC2)c1c[nH]c2cc(Cl)c(F)cc12 [Compound 52, Quinuclidin-4-ylmethyl 6-chloro-5-fluoro-1H-indole-3-carboxylate hydrochloride]",< 5.00

# Same assay, conditions: read-out: 2C9 IC50, Protocol 2
row,SMILES,pIC50
1,"O=C(OCC12CCN(CC1)CC2)c1c[nH]c2ccccc12 [Compound 1, quinuclidin-4-ylmethyl 1H-indole-3-carboxylate]",< 5.00
2,"O=C(OCC12CCN(CC1)CC2)c1c[nH]c2ccc(F)cc12 [Compound 12, quinuclidin-4-ylmethyl 5-fluoro-1H-indole-3-carboxylate]",< 5.00
3,"O=C(OCC12CCN(CC1)CC2)c1c[nH]c2ccc(O)cc12 [Compound 15, quinuclidin-4-ylmethyl 5-hydroxy-1H-indole-3-carboxylate]",< 5.00

# Biological target: CYP2C19 (Homo sapiens (Human), UniProt P33261)
# Sequence (P33261 whole entry): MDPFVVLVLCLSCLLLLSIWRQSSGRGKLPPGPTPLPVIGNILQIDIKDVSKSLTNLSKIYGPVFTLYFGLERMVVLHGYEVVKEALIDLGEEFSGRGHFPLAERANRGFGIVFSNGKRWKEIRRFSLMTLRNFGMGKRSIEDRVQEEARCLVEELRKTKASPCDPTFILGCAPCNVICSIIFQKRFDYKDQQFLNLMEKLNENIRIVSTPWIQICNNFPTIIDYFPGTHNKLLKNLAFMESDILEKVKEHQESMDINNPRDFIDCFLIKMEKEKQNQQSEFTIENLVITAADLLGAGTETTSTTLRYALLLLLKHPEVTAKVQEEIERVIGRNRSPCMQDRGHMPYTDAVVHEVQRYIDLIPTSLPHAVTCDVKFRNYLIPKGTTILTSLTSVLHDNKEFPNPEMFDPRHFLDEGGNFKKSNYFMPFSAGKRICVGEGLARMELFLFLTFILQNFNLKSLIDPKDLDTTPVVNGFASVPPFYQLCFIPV
# Test: Cytochrome P450 inhibition in human liver microsomes, CYP2C19
# Settings: read-out: 2C19 IC50, Protocol 1
row,SMILES,pIC50
1,"Cl.O=C(OCC12CCN(CC1)CC2)c1c[nH]c2cc(Cl)c(F)cc12 [Compound 52, Quinuclidin-4-ylmethyl 6-chloro-5-fluoro-1H-indole-3-carboxylate hydrochloride]",< 5.00

# Same assay, conditions: read-out: 2C19 IC50, Protocol 2
row,SMILES,pIC50
1,"O=C(OCC12CCN(CC1)CC2)c1c[nH]c2ccccc12 [Compound 1, quinuclidin-4-ylmethyl 1H-indole-3-carboxylate]",< 5.00
2,"O=C(OCC12CCN(CC1)CC2)c1c[nH]c2ccc(F)cc12 [Compound 12, quinuclidin-4-ylmethyl 5-fluoro-1H-indole-3-carboxylate]",< 5.00
3,"O=C(OCC12CCN(CC1)CC2)c1c[nH]c2ccc(O)cc12 [Compound 15, quinuclidin-4-ylmethyl 5-hydroxy-1H-indole-3-carboxylate]",< 5.00

# Biological target: CYP1A2 (Homo sapiens (Human), UniProt P05177)
# Sequence (P05177 whole entry): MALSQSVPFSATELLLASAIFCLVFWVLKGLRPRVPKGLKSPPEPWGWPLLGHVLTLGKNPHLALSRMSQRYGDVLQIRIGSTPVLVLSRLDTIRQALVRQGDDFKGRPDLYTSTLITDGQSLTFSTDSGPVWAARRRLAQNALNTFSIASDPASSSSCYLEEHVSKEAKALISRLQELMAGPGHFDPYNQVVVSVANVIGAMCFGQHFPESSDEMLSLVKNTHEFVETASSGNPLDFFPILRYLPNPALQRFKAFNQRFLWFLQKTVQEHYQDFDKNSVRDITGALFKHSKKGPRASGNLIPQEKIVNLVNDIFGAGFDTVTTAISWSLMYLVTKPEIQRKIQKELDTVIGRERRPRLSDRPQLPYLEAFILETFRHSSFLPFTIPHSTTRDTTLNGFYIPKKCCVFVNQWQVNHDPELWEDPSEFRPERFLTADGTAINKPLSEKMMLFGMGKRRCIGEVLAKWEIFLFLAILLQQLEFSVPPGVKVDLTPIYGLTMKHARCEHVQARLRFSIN
# Test: Cytochrome P450 inhibition in human liver microsomes, CYP1A2
# Settings: read-out: 1A2 IC50, Protocol 1
row,SMILES,pIC50
1,"Cl.O=C(OCC12CCN(CC1)CC2)c1c[nH]c2cc(Cl)c(F)cc12 [Compound 52, Quinuclidin-4-ylmethyl 6-chloro-5-fluoro-1H-indole-3-carboxylate hydrochloride]",< 5.00

# Same assay, conditions: read-out: 1A2 IC50, Protocol 2
row,SMILES,pIC50
1,"O=C(OCC12CCN(CC1)CC2)c1c[nH]c2ccccc12 [Compound 1, quinuclidin-4-ylmethyl 1H-indole-3-carboxylate]",< 5.00
2,"COc1ccc2c(C(=O)OCC34CCN(CC3)CC4)c[nH]c2c1 [Compound 10, quinuclidin-4-ylmethyl 6-methoxy-1H-indole-3-carboxylate]",< 5.00
3,"O=C(OCC12CCN(CC1)CC2)c1c[nH]c2cc(F)ccc12 [Compound 11, quinuclidin-4-ylmethyl 6-fluoro-1H-indole-3-carboxylate]",< 5.00
4,"O=C(OCC12CCN(CC1)CC2)c1c[nH]c2ccc(F)cc12 [Compound 12, quinuclidin-4-ylmethyl 5-fluoro-1H-indole-3-carboxylate]",< 5.00
5,"O=C(OCC12CCN(CC1)CC2)c1c[nH]c2ccc(O)cc12 [Compound 15, quinuclidin-4-ylmethyl 5-hydroxy-1H-indole-3-carboxylate]",< 5.00

# Biological target: rat brain nicotinic receptor (α7 NAChR) (Rattus norvegicus (Rat), UniProt Q05941)
# Sequence (Q05941 23-502 limits assumed): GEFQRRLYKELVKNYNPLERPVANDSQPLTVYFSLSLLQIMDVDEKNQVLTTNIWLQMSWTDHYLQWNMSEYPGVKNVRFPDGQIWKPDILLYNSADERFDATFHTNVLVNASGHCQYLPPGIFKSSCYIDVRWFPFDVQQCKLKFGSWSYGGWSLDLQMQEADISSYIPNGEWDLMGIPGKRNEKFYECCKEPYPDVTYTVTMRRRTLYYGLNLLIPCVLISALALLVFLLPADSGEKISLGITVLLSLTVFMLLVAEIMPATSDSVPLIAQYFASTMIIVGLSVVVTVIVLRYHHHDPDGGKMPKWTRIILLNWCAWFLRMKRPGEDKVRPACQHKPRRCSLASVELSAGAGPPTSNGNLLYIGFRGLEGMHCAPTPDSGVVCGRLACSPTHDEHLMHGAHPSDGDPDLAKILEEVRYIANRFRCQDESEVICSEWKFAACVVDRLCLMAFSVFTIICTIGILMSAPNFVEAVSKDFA
# Test: not given
# Format: binding
# Settings: not given
SMILES,pIC50,pKi
"O=C(OCC12CCN(CC1)CC2)c1c[nH]c2ccccc12 [Compound 1, quinuclidin-4-ylmethyl 1H-indole-3-carboxylate]",7.50,7.56
"O=C(OCC12CCN(CC1)CC2)c1c[nH]c2cc(F)ccc12 [Compound 11, quinuclidin-4-ylmethyl 6-fluoro-1H-indole-3-carboxylate]",6.58,6.64
"O=C(OCC12CCN(CC1)CC2)c1c[nH]c2ccc(F)cc12 [Compound 12, quinuclidin-4-ylmethyl 5-fluoro-1H-indole-3-carboxylate]",7.06,7.12
"O=C(OCC12CCN(CC1)CC2)c1c[nH]c2ccc(O)cc12 [Compound 15, quinuclidin-4-ylmethyl 5-hydroxy-1H-indole-3-carboxylate]",6.82,6.88

# Biological target: CYP3A4 (Homo sapiens (Human), UniProt P08684)
# Sequence (P08684 whole entry): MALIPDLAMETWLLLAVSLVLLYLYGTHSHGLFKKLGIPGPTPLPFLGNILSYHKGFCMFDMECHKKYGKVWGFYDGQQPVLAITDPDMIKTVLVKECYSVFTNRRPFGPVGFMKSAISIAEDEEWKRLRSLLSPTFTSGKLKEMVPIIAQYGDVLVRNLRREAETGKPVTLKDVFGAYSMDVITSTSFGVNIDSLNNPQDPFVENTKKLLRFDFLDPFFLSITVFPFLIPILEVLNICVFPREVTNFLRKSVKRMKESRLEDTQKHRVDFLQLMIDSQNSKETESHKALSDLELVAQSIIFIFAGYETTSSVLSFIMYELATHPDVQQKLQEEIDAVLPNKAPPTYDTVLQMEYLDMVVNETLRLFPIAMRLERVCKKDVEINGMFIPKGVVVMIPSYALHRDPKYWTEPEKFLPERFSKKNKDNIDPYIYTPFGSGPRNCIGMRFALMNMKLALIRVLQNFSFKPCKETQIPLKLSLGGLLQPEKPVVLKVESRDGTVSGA
# Test: Cytochrome P450 inhibition in human liver microsomes, CYP3A4
# Settings: read-out: 3A4 IC50 (Midazolam), substrate midazolam, Protocol 1
row,SMILES,pIC50
1,"Cl.O=C(OCC12CCN(CC1)CC2)c1c[nH]c2cc(Cl)c(F)cc12 [Compound 52, Quinuclidin-4-ylmethyl 6-chloro-5-fluoro-1H-indole-3-carboxylate hydrochloride]",< 5.00

# Same assay, conditions: read-out: 3A4 IC50 (Midazolam), substrate midazolam, Protocol 2
row,SMILES,pIC50
1,"O=C(OCC12CCN(CC1)CC2)c1c[nH]c2cc(F)ccc12 [Compound 11, quinuclidin-4-ylmethyl 6-fluoro-1H-indole-3-carboxylate]",< 5.00

# Same assay, conditions: read-out: 3A4 IC50 (Testosterone), substrate testosterone, Protocol 1
row,SMILES,pIC50
1,"Cl.O=C(OCC12CCN(CC1)CC2)c1c[nH]c2cc(Cl)c(F)cc12 [Compound 52, Quinuclidin-4-ylmethyl 6-chloro-5-fluoro-1H-indole-3-carboxylate hydrochloride]",< 5.00

# System: not listed separately
# Test: Human plasma stability
# Format: in vitro ADME
# Settings: Protocol No. 2; plasma, 5 μM, 37° C.
# Experimental: Protocol 1: Studies were carried out in human plasma. All plasma was obtained from Bioreclamation and collected on sodium heparin. Plasma was adjusted to pH 7.4. A DMSO stock was first prepared for the test compound. An aliquot of the DMSO solution was dosed into 1 mL of plasma, which had been pre-warmed to 37° C., at a final test compound concentration of 1 μM. The vials were kept in a benchtop Thermomixer® for the duration of the experiment. Aliquots (100 μL) were taken at each time point (0, 15, 30, 60, and 120 minutes) and added to 96-well plates which had been pre-filled with 300 μL of acetonitrile. Samples were stored at 4° C. until the end of the experiment. After the final time point was sampled, the plate was mixed and then centrifuged at 3,000 rpm for 10 minutes. Aliquots of the supernatant were removed, diluted 1:1 into distilled water, and analyzed by LC-MS/MS. The peak area response ratio to internal standard (PARR) of the compound at 15, 30, 60 and 120 minutes was compared to the PARR at time 0 to determine the percent of test compound remaining at each time point. Half-lives were calculated using GraphPad software, fitting to a single-phase exponential decay equation.
# Protocol 2: Studies were carried out in plasma. Plasma was prepared under approval of IRB and IACUC on sodium heparin. The pH of plasma was monitored and used within the range of pH 7.4 to pH 8.0. DMSO stocks were prepared for the test compounds. Aliquots of the DMSO solutions were diluted to 0.05 mM by 0.05 mM Sodium phosphate buffer with 0.5% BSA. Then 10 μL of 0.05 mM solutions were dosed into 90 μL of plasma in duplicates (n=2), which had been pre-warmed to 37° C., at a final test compound concentration of 5 μM. The plates were kept in a 37° C. water bath for the duration of the experiment. At each time point (0, 5, 15, 30, 45, 60, and 120 minutes), 400 μL of acetonitrile was added into corresponding wells. After the final time point was sampled, the plates were shaken at the vibrator (IKA, MTS 2/4) for 10 min (600 rpm/min) and then centrifuged at 5594 g for 15 min (Thermo Multifuge×3R). Aliquots of the supernatant were removed, diluted 1:1 into distilled water, and analyzed by LC-MS/MS. The peak area response ratio to internal standard (PARR) of the compounds at 5, 15, 30, 45, 60, and 120 minutes was compared to the PARR at time 0 to determine the percent of test compound remaining at each time point. Half-lives were calculated using Excel software, fitting to a single-phase exponential decay equation.
row,SMILES,% Remaining @ 2 h [%]
1,"Cl.O=C(OCC12CCN(CC1)CC2)c1c[nH]c2cc(Cl)c(F)cc12 [Compound 52, Quinuclidin-4-ylmethyl 6-chloro-5-fluoro-1H-indole-3-carboxylate hydrochloride]",85.8425

# Same assay, conditions: human, plasma, 2 h, 1 μM, pH 7.4
row,SMILES,% Remaining @ 2 h [%]
1,"O=C(OCC12CCN(CC1)CC2)c1c[nH]c2ccccc12 [Compound 1, quinuclidin-4-ylmethyl 1H-indole-3-carboxylate]",11
2,"O=C(OCC12CCN(CC1)CC2)c1c[nH]c2ccc(F)cc12 [Compound 12, quinuclidin-4-ylmethyl 5-fluoro-1H-indole-3-carboxylate]",31

# Same assay, conditions: human, plasma, pH 7.4
row,SMILES,half-life at 1 μM [h]
1,"O=C(OCC12CCN(CC1)CC2)c1c[nH]c2ccccc12 [Compound 1, quinuclidin-4-ylmethyl 1H-indole-3-carboxylate]",0.642
2,"COc1ccc2c(C(=O)OCC34CCN(CC3)CC4)c[nH]c2c1 [Compound 10, quinuclidin-4-ylmethyl 6-methoxy-1H-indole-3-carboxylate]",> 2
3,"O=C(OCC12CCN(CC1)CC2)c1c[nH]c2ccc(F)cc12 [Compound 12, quinuclidin-4-ylmethyl 5-fluoro-1H-indole-3-carboxylate]",1.23

# System: not listed separately
# Test: Metabolic stability assay in rat liver microsomes (RLM)
# Format: in vitro ADME
# Settings: Protocol No. 1; rat liver microsomes, 1 μM
# Experimental: as §1, §2, §3, §4, §5
row,SMILES,RLM [mL/min/kg]
1,"Cl.O=C(OCC12CCN(CC1)CC2)c1c[nH]c2cc(Cl)c(F)cc12 [Compound 52, Quinuclidin-4-ylmethyl 6-chloro-5-fluoro-1H-indole-3-carboxylate hydrochloride]",345.506

# Same assay, conditions: rat, microsomes, 1 μM, pH 7.4
row,SMILES,RLM [mL/min/kg]
1,"O=C(OCC12CCN(CC1)CC2)c1c[nH]c2ccccc12 [Compound 1, quinuclidin-4-ylmethyl 1H-indole-3-carboxylate]",105.84
2,"COc1ccc2c(C(=O)OCC34CCN(CC3)CC4)c[nH]c2c1 [Compound 10, quinuclidin-4-ylmethyl 6-methoxy-1H-indole-3-carboxylate]",36.72
3,"O=C(OCC12CCN(CC1)CC2)c1c[nH]c2cc(F)ccc12 [Compound 11, quinuclidin-4-ylmethyl 6-fluoro-1H-indole-3-carboxylate]",97.6892
4,"O=C(OCC12CCN(CC1)CC2)c1c[nH]c2ccc(F)cc12 [Compound 12, quinuclidin-4-ylmethyl 5-fluoro-1H-indole-3-carboxylate]",208.73
5,"O=C(OCC12CCN(CC1)CC2)c1c[nH]c2ccc(O)cc12 [Compound 15, quinuclidin-4-ylmethyl 5-hydroxy-1H-indole-3-carboxylate]",25.92
